Measured values as given in ChEMBL document CHEMBL1126253, “Energy aspects of oil/water partition leading to the novel hydrophobic parameters for the analysis of quantitative structure-activity relationships” (J Med Chem, 1992).

Assays:
[1] = Partition coefficient (logD2.0); format: physicochemical; settings: octanol/water
[2] = log (1/C') was determined; format: ADME
Rattus norvegicus [3] = species: Rattus norvegicus; experiment: Concentration of the drug in the kidney of rat; format: ADME, organism-based; settings: in vivo
Rattus norvegicus [4] = species: Rattus norvegicus; experiment: Concentration of the drug in the liver of rat; format: ADME, organism-based; settings: in vivo
Culicidae = experiment: Concentration required to kill 50% of the mosquito larva in 24 hr.; format: organism-based; settings: in vivo

Compound | logD ([1]; pH 2, read-out: logD) | Log M (Rattus norvegicus [3]) | Log M (Rattus norvegicus [4]) | Log 1/C [2] | also measured
O=C(O)c1ccc(I)cc1 |  |  |  | 0.99 | logD [1]: 3.05; Log LD50: -2.31
CN(C)c1cccc(C(=O)O)c1 | 0.22 | 0.45 | 0.2 |  | 
O=C(O)c1ccccc1I | 2.45 |  |  | 1.19 | 
O=C(O)c1ccccc1F | 1.52 |  |  | 1.82 | 
O=C(O)c1ccccc1[N+](=O)[O-] | 1.2 |  |  | 1.54 | 
O=C(O)c1c(Cl)cccc1Cl | 1.8 |  |  |  | Log LD50: -1.22
[N-]=[N+]=Nc1ccc(C(=O)O)cc1 | 2.54 |  |  |  | 
O=C(O)c1ccccc1Cl |  |  |  | 2.15 | Log LD50 (Culicidae): -1.62; logD [1]: 2.02
O=C(O)c1ccccc1Br | 2.14 |  |  | 1.9 | 
CC(=O)Nc1cccc(C(=O)O)c1 | 1.32 | -0.1 | -0.29 |  | 
O=C(O)c1cccc(Cl)c1 |  | 1.79 | 1.57 | 2.16 | logD [1]: 2.72; Log LD50: -2
O=C(O)c1ccc(Cl)c(Cl)c1 |  |  |  | 2.47 | logD [1]: 3.25; Log LD50: -2.28
O=C(O)c1ccc(Br)cc1 |  |  |  | 1.19 | logD [1]: 2.81; Log LD50: -2.03
O=C(O)c1ccc(F)cc1 | 2.05 |  |  | 1.27 | Log LD50: -1.85
O=C(O)c1cc(Cl)ccc1Cl | 2.82 |  |  | 1.63 | Log LD50: -1.77
Nc1ccc(C(=O)O)cc1 | 0.76 | 0.79 | 0.59 | -1.67 | Log LD50: -1.54
O=C(O)c1cccc(Br)c1 |  |  |  | 1.71 | logD [1]: 2.86
N#Cc1cccc(C(=O)O)c1 | 1.65 | 0.95 | 0.69 |  | 
O=C(O)c1cccc(C(F)(F)F)c1 | 2.99 |  |  |  | 
O=C(O)c1cccc(I)c1 |  |  |  | 1.29 | logD [1]: 3.13
O=C(O)c1cc(I)cc(I)c1I [2,3,5-TRIIODOBENZOIC ACID] | 3.45 |  |  |  | 
O=C(O)c1cccc(O)c1 [3-HYDROXYBENZOIC ACID] |  |  |  | -0.99 | logD [1]: 1.55
Cc1ccc(C(=O)O)cc1 [4-METHYLBENZOIC ACID] |  |  |  |  | logD [1]: 2.26
O=C(O)c1ccc([N+](=O)[O-])cc1 [4-NITROBENZOIC ACID] |  | 1.02 | 0.79 |  | logD [1]: 1.84; Log LD50: -1.52
Nc1ccccc1C(=O)O [ANTHRANILIC ACID] | 0.51 |  |  |  | 
O=C(O)c1ccc2ccccc2c1 [BETA-NAPHTOIC ACID] | 2.78 |  |  |  | Log LD50: -1.92
O=C(O)c1cccc2ccccc12 [NAPHTHOIC ACID] | 2.98 |  |  |  | Log LD50: -1.46
O=C(O)c1ccc(O)cc1 [PARABEN] | 1.41 |  |  | -1.69 | Log LD50: -1.29
Cc1ccccc1C(=O)O [TOLUIC ACID] | 2.27 |  |  |  | 
COc1ccc(C(=O)O)cc1 [p-ANISIC ACID] | 1.95 | 1 | 1.09 | -0.66 | Log LD50: -1.6

More lines, main results first:

logD ([1]; pH 2, read-out: logD) | Log M (Rattus norvegicus [3]) | Log M (Rattus norvegicus [4]) | Compound | Log 1/C [2] | also measured
2.89 |  |  | CCc1ccc(C(=O)O)cc1 |  | 
1.63 | 1.57 | 0.62 | N#Cc1ccc(C(=O)O)cc1 |  | 
1.28 | 0.08 | 0.17 | CN(C)c1ccc(C(=O)O)cc1 |  | 
3.09 |  |  | CCCOc1ccc(C(=O)O)cc1 |  | 
1.76 |  |  | O=Cc1ccc(C(=O)O)cc1 |  | 
3.63 |  |  | CCCCc1ccc(C(=O)O)cc1 |  | 
3.28 |  |  | CC(C)c1ccc(C(=O)O)cc1 |  | 
3.42 |  |  | CCCc1ccc(C(=O)O)cc1 |  | 
1.98 | 1.35 | 1.34 | COc1cccc(C(=O)O)c1 | 0.29 | 
 | 1.23 | 0.73 | O=C(O)c1cccc([N+](=O)[O-])c1 | 0.22 | logD [1]: 1.69
 | 0.89 | 0.92 | CCOc1ccc(C(=O)O)cc1 |  | 
3.18 |  |  | O=C(O)c1ccc(C(F)(F)F)cc1 |  | 
 | 1.83 | 1.71 | Cc1cccc(C(=O)O)c1 |  | 
-0.79 | 1.45 | 0.76 | Nc1cccc(C(=O)O)c1 [3-AMINOBENZOIC ACID] | -1 | 
1.27 | -0.64 | -0.08 | CC(=O)Nc1ccc(C(=O)O)cc1 [ACEDOBEN] |  | 
1.03 |  |  | NCc1ccc(C(=O)O)cc1 [AMINOMETHYLBENZOIC ACID] |  | 
 | 1.44 | 1.28 | O=C(O)c1ccccc1 [BENZOIC ACID] |  | 
0.55 |  |  | NS(=O)(=O)c1ccc(C(=O)O)cc1 [CARZENIDE] |  | 
